From patent US20240384268A1, “Oligonucleotides” (Hudson Institute of Medical Research, priority 2021, published 2024)

Molecular target: T1, human TLR7 (Homo sapiens, UniProt Q9NYK1)
T1 construct: HA; host or cells: 293XL-hTLR7-HA (HEK293)
T1 sequence (Q9NYK1 27-1049): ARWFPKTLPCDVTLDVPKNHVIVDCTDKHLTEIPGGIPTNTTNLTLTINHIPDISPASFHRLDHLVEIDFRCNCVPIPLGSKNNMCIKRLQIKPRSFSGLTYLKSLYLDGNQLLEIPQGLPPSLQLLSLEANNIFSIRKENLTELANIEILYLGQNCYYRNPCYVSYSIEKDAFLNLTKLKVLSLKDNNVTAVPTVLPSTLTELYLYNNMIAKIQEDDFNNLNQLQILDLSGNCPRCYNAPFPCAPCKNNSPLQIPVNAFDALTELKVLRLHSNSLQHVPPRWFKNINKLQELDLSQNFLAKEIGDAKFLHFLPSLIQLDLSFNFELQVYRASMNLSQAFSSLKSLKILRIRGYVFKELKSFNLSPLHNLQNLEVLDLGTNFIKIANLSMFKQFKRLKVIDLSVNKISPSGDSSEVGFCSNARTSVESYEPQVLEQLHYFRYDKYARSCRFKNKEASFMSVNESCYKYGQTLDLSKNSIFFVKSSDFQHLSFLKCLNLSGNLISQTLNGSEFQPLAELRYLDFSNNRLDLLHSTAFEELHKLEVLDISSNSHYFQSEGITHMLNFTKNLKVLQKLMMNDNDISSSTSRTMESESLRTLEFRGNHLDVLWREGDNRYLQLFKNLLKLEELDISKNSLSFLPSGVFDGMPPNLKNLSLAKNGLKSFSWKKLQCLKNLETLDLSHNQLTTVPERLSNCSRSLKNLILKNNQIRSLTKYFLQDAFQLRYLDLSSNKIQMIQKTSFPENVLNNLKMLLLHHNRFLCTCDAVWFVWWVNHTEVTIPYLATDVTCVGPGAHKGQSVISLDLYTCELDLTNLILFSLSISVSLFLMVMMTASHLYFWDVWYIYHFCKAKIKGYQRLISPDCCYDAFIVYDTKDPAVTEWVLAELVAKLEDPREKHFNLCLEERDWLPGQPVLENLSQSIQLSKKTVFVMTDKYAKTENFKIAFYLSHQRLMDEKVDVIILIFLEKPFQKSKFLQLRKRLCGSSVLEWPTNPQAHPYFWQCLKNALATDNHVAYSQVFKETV
Assay: HEK-TLR7 NF-κB-luciferase reporter, R848 stimulation
Type: cell-based
Details: for TLR7 100 nM (averaged NF-κB-Luciferase level relative to R848 condition): ASO 100 nM; for TLR7 100 nM (averaged NF-κB-Luciferase level relative to R848 condition) / TLR7 500 nM (averaged NF-κB-Luciferase level relative to R848 condition): relative to R848 only, given as fraction; for TLR7 500 nM (averaged NF-κB-Luciferase level relative to R848 condition): ASO 500 nM

| Sequence | TLR7 100 nM (averaged NF-κB-Luciferase level relative to R848 condition) | TLR7 500 nM (averaged NF-κB-Luciferase level relative to R848 condition) | TLR7 100 nM (MOE-modified ASO at 100 nM, averaged NF-κB-Luciferase relative to R848 condition) | TLR7 500 nM (MOE-modified ASO at 500 nM, averaged NF-κB-Luciferase relative to R848 condition) |
| --- | --- | --- | --- | --- |
| AAAGGACTGAGGAAAG (antisense; LNA-modified, pattern not given here) [CAMSAP1-6273 LNA KL] | 0.513 | 0.267 | – | – |
| AACACTTCGTGGGGTC (antisense; LNA-modified, pattern not given here) [HPRT LNA-666 V1] | 0.899 | 0.445 | – | – |
| AACCCCTTTCACCATC (antisense; LNA-modified, pattern not given here) [MB21D1-689 LNA KL] | 0.771 | 0.426 | – | – |
| AATCCAACAAAGTCTG (antisense; LNA-modified, pattern not given here) [HPRT LNA-692 KL] | 0.727 | 0.433 | – | – |
| ACACTTCGTGGGGTCCTTTT (antisense; 2'-MOE modified, pattern not given here) [HPRT-663 MOE] | – | – | 0.403 | 0.235 |
| ACCACGTCTGCTCTAA (antisense; LNA-modified, pattern not given here) [CAMSAP1-1635 LNA KL] | 1.078 | 0.532 | – | – |
| ACGTTCAGTCCTGTCC (antisense; LNA-modified, pattern not given here) [HPRT LNA-294 V1] | 0.601 | 0.136 | – | – |
| ACTTCGTGGGGTCCTT (antisense; LNA-modified, pattern not given here) [HPRT LNA-663 V1] | 0.804 | 0.736 | – | – |
| AGATTTCAGAGCAGCT (antisense; LNA-modified, pattern not given here) [EGFR-4885 LNA KL] | 0.438 | 0.021 | – | – |
| AGCTTCGAGGCCCCAG (antisense; LNA-modified, pattern not given here) [MB21D1-616 LNA V1] | 0.554 | 0.111 | – | – |
| AGGACTCCAGATGTTT (antisense; LNA-modified, pattern not given here) [HPRT LNA pos cont] | 0.437 | 0.293 | – | – |
| AGGCCCTTCGCACTTC (antisense; LNA-modified, pattern not given here) [EGFR-1225 LNA V1] | 0.737 | 0.164 | – | – |
| AGGTCTTGGCTTCGTG (antisense; LNA-modified, pattern not given here) [MB21D1-524 LNA V1] | 0.457 | 0.050 | – | – |
| AGTGTTGAGATACTCG (antisense; LNA-modified, pattern not given here) [EGFR-3652 LNA KL] | 0.559 | 0.115 | – | – |
| ATCTGGCAGCCCATCA (antisense; LNA-modified, pattern not given here) [CTNN2B-2516 LNA V1] | 0.663 | 0.279 | – | – |
| ATGGCCTCCCATCTCC (antisense; LNA-modified, pattern not given here) [HPRT LNA-330 V1] | 0.550 | 0.117 | – | – |
| ATGTGATGGCCTCCCA (antisense; LNA-modified, pattern not given here) [HPRT LNA-335 V1] | 0.499 | 0.128 | – | – |
| CACTTCGTGGGGTCCT (antisense; LNA-modified, pattern not given here) [HPRT LNA-664 V1] | 0.868 | 0.240 | – | – |

| Sequence | TLR7 100 nM (averaged NF-κB-Luciferase level relative to R848 condition) | TLR7 500 nM (averaged NF-κB-Luciferase level relative to R848 condition) | TLR7 100 nM (MOE-modified ASO at 100 nM, averaged NF-κB-Luciferase relative to R848 condition) | TLR7 500 nM (MOE-modified ASO at 500 nM, averaged NF-κB-Luciferase relative to R848 condition) |
| --- | --- | --- | --- | --- |
| CATCCACCACGTCGTC (antisense; LNA-modified, pattern not given here) [EGFR-3266 LNA V1] | 0.741 | 0.353 | – | – |
| CCAACACTTCGTGGGG (antisense; LNA-modified, pattern not given here) [HPRT LNA-668 V1] | 0.808 | 0.446 | – | – |
| CCACATCCTGTGGCTC (antisense; LNA-modified, pattern not given here) [CAMSAP1-2906 LNA V1] | 0.789 | 0.363 | – | – |
| CCACTTGGCAGACCAT (antisense; LNA-modified, pattern not given here) [CTNN2B-1575 LNA V1] | 0.765 | 0.470 | – | – |
| CCAGCAGGTCAGCAAA (antisense; LNA-modified, pattern not given here) [HPRT LNA-388 KL] | 1.101 | 0.942 | – | – |
| CCCACTTGGCAGACCA (antisense; LNA-modified, pattern not given here) [CTNN2B-1576 LNA V1] | 1.024 | 0.639 | – | – |
| CCTCCCATCTCCTTCA (antisense; LNA-modified, pattern not given here) [HPRT LNA-326 V1] | 0.758 | 0.843 | – | – |
| CCTTGCACGTGGCTTC (antisense; LNA-modified, pattern not given here) [EGFR-1013 LNA V1] | 0.617 | 0.281 | – | – |
| CGGCCTCGGAAGCTCT (antisense; LNA-modified, pattern not given here) [MB21D1-168 LNA V1] | 0.594 | 0.139 | – | – |
| CGTATTATAGCCGATT (antisense; LNA-modified, pattern not given here) [NC1 LNA PS 3-10-3] | 0.754 | 0.226 | – | – |
| CTGCAGCTTCCTTGTC (antisense; LNA-modified, pattern not given here) [CTNN2B-2136 LNA V1] | 0.467 | 0.053 | – | – |
| CTTCGTGGGGTCCTTT (antisense; LNA-modified, pattern not given here) [HPRT LNA-662 V1] | 0.685 | 0.233 | – | – |
| CTTGAAGCATCGTATC (antisense; LNA-modified, pattern not given here) [CTNN2B-3648 LNA KL] | 0.363 | 0.044 | – | – |
| CTTGGCTTCGTGGAGC (antisense; LNA-modified, pattern not given here) [MB21D1-520 LNA V1] | 0.806 | 0.098 | – | – |
| GAAAGGTTATGCAAGG (antisense; LNA-modified, pattern not given here) [CTNN2B-916 LNA KL] | 0.166 | 0.101 | – | – |
| GACTATACGCGCAATA (antisense; LNA-modified, pattern not given here) [NC5 LNA PS 3-10-3] | 0.282 | 0.098 | – | – |
| GAGGTCTTGGCTTCGT (antisense; LNA-modified, pattern not given here) [MB21D1-525 LNA V1] | 0.793 | 0.067 | – | – |
